Test results as given in US11746085B2, “Triphenylsulfonium salt compound, and uses thereof” (Changzhou Tronly Advanced Electronic Materials Co., Ltd., priority 2018, dated 2023).

Assay: Dissolution performance test: solubility in 3-ethyl-3-hydroxymethyl oxetane monomer
Type: physicochemical
Settings: Table 3; maximum number of grams dissolved in 100 g 3-ethyl-3-hydroxymethyl oxetane monomer at 20° C.
Procedure: The solubility in 3-ethyl-3-hydroxymethyl oxetane monomer was tested for Compound A-1 to A-38 and C-1 to C-25, and comparative compounds B-1 and B-2 as well as D-1 and D-2 in the present invention, calculated based on the maximum number of grams dissolved in 100 g solvent at 20° C.

Compound	Solubility [g]
COc1ccc([S+](c2ccc(C(C)=O)cc2)c2ccc(C(C)=O)cc2)cc1F [Compound A-8]	23.4
CCc1ccc([S+](c2ccc(OC)cc2)c2ccc(CC)c(C(F)(F)F)c2)cc1C(F)(F)F [Compound A-31]	27.6
Cc1ccc([S+](c2ccc(Sc3ccccc3)cc2)c2ccc(C)c([N+](=O)[O-])c2)cc1[N+](=O)[O-] [Compound A-27]	22.3
Cc1ccc([S+](c2ccccc2)c2ccccc2)cc1F [Compound A-4]	19.5
COc1ccc([S+](c2ccc(Sc3ccccc3)cc2)c2ccc(OC)c(F)c2)cc1F [Compound A-35]	24.8
Cc1ccc([S+](c2ccc(Cc3ccccc3)cc2)c2ccc(C)c(F)c2)cc1F [Compound A-14]	23.5
Cc1ccc([S+](c2ccccc2)c2ccc(/C=C/c3ccccc3)cc2)cc1F (stereo not shown) [Compound A-38]	23.5
Cc1ccc([S+](c2ccc(Oc3ccccc3)cc2)c2ccc(C)c(F)c2)cc1F [Compound A-13]	23.8
Cc1ccc([S+](c2ccc(C)c(F)c2)c2ccc(C)c(F)c2)cc1 [Compound A-3]	22.5
Cc1ccc([S+](c2ccc(C)c(F)c2)c2ccc3oc4ccccc4c3c2)cc1F [Compound A-24]	23.1
Cc1ccc([SH](c2ccc(Sc3ccc(C(=O)c4ccccc4)cc3)cc2)c2ccc(C)c(F)c2)cc1F [Compound A-30]	27.8
Cc1ccc([S+](c2ccc(C)c(F)c2)c2ccc(C)c(F)c2)cc1 [Compound A-11]	21.6
CCc1ccc([S+](c2ccc(OCCO)cc2)c2ccc(CC)c([N+](=O)[O-])c2)cc1[N+](=O)[O-] [Compound A-32]	28.2
COc1ccc([S+](c2ccc(C)c(F)c2)c2ccc(C)c(F)c2)cc1 [Compound A-1]	25.7
CC(=O)c1ccc([S+](c2ccccc2)c2ccc(C)c(C#N)c2)cc1 (stereo not shown) [Compound A-7]	20.6
Fc1ccc([S+](c2ccccc2)c2ccccc2)cc1F [Compound A-5]	19.1
CCc1ccc([S+](c2ccc(OC)cc2)c2ccc(CC)c(F)c2)cc1F [Compound A-28]	26.4

Compound	Solubility [g]
Cc1ccc([S+](c2ccc(C)c(C#N)c2)c2ccc(C)c(C#N)c2)cc1C [Compound A-18]	23.2
Cc1ccc(-[s+]2c3ccccc3c(=O)c3cc(C(C)C)ccc32)cc1F (stereo not shown) [Compound A-2]	23.5
Cc1ccc([S+](c2ccc(Sc3ccccc3)cc2)c2ccc(C)c(C(=O)Cl)c2)cc1C(=O)Cl [Compound A-19]	24.3
Cc1ccc([SH](c2ccc(C)c(F)c2)c2ccc(C)c(F)c2)cc1F [Compound A-10]	23.8
Fc1cccc([S+](c2ccccc2)c2ccccc2)c1 [Compound B-1, reference compound]	12.1
Cc1ccc([S+](c2ccc(-c3ccccc3)cc2)c2ccc(C)c(F)c2)cc1F [Compound A-15]	23.4
CC(=O)c1cc([SH](c2ccc(Sc3ccccc3)cc2)c2ccc(C)c(C(C)=O)c2)ccc1C [Compound A-16]	22.6
Fc1ccc([S+](c2ccccc2)c2ccc(Sc3ccccc3)cc2)cc1F (stereo not shown) [Compound A-20]	19.8
Cc1ccc([S+](c2ccc(Sc3ccccc3)cc2)c2ccc(C)c(F)c2)cc1F [Compound A-12]	24.5
Cc1ccc([S+](c2ccc(OCCO)cc2)c2ccc(C)c(F)c2)cc1F [Compound A-9]	24.3
Cc1ccc([S+](c2ccc(/C=C/c3ccccc3)cc2)c2ccc(C)c(F)c2)cc1F [Compound A-37]	22.4
Cc1ccc([S+](c2ccccc2)c2ccccc2)cc1C(F)(F)F [Compound A-6]	19.2
Cc1ccc([S+](c2ccc(C)c(F)c2)c2ccc3c(c2)Cc2ccccc2-3)cc1F [Compound A-22]	22.3
Cc1ccc([S+](c2ccccc2)c2ccccc2)cc1 [Compound B-2, reference compound]	20.6
Cc1ccc([S+](c2ccccc2)c2ccc(-c3ccccc3)cc2)cc1F (stereo not shown) [Compound A-21]	20.1
Fc1cc([S+](c2ccc(Sc3ccccc3)cc2)c2ccc(Cc3ccccc3)c(F)c2)ccc1Cc1ccccc1 [Compound A-36]	23.2

Same assay, conditions: Table 4; maximum number of grams dissolved in 100 g 3-ethyl-3-hydroxymethyl oxetane monomer at 20° C.

Compound	Solubility [g]
Fc1cc([S+](c2ccc(Sc3ccc([S+](c4ccc(Cc5ccccc5)c(F)c4)c4ccc(Cc5ccccc5)c(F)c4)cc3)cc2)c2ccc(Cc3ccccc3)c(F)c2)ccc1Cc1ccccc1 [Compound C-16]	24.4
Cc1ccc([S+](c2ccccc2)c2ccc(Sc3ccc([S+](c4ccccc4)c4ccc(C)c(C(F)(F)F)c4)cc3)cc2)cc1C(F)(F)F (stereo not shown) [Compound C-20]	22.1
COc1ccc([S+](c2ccccc2)c2ccc(Sc3ccc([S+](c4ccccc4)c4ccc(OC)c(F)c4)cc3)cc2)cc1F (stereo not shown) [Compound C-18]	20.7
CCc1ccc([S+](c2ccc(Sc3ccc([S+](c4ccc(CC)c(F)c4)c4ccc(CC)c(F)c4)cc3)cc2)c2ccc(CC)c(F)c2)cc1F [Compound C-5]	25.1
Fc1cccc([S+](c2ccccc2)c2ccc(Sc3ccc([S+](c4ccccc4)c4cccc(F)c4)cc3)cc2)c1 [Compound D-1, reference compound]	11.5
Cc1ccc([SH](c2ccc(C)c(F)c2)c2ccc3c(c2)oc2cc([SH](c4ccc(C)c(F)c4)c4ccc(C)c(F)c4)ccc23)cc1F [Compound C-23]	23.6
Cc1ccc([S+](c2ccc(/C=C/c3ccc([S+](c4ccc(C)c(F)c4)c4ccc(C)c(F)c4)cc3)cc2)c2ccc(C)c(F)c2)cc1F [Compound C-7]	22.4
Cc1ccc([S+](c2ccc(Oc3ccc([S+](c4ccc(C)c(F)c4)c4ccc(C)c(F)c4)cc3)cc2)c2ccc(C)c(F)c2)cc1F [Compound C-8]	23.7
Cc1ccc([S+](c2ccc(C)c(F)c2)c2ccc3c(c2)Cc2cc([S+](c4ccc(C)c(F)c4)c4ccc(C)c(F)c4)ccc2-3)cc1F [Compound C-21]	23.4
CCn1c2cc([SH](c3ccc(C)c(C(F)(F)F)c3)c3ccc(C)c(C(F)(F)F)c3)ccc2c2ccc([SH](c3ccc(C)c(C(F)(F)F)c3)c3ccc(C)c(C(F)(F)F)c3)cc21 [Compound C-25]	22.8
Cc1ccc([S+](c2ccccc2)c2ccc(Sc3ccc([S+](c4ccccc4)c4ccc(C)c(F)c4)cc3)cc2)cc1F (stereo not shown) [Compound C-17]	21.5
CCCCC1(CCCC)c2cc([S+](c3ccc(C)c(F)c3)c3ccc(C)c(F)c3)ccc2-c2ccc([S+](c3ccc(C)c(F)c3)c3ccc(C)c(F)c3)cc21 [Compound C-22]	24.5
Cc1ccc([S+](c2ccc(Cc3ccc([S+](c4ccc(C)c([N+](=O)[O-])c4)c4ccc(C)c([N+](=O)[O-])c4)cc3)cc2)c2ccc(C)c([N+](=O)[O-])c2)cc1[N+](=O)[O-] [Compound C-9]	23.1
Cc1ccc([S+](c2ccc(Sc3ccc([S+](c4ccc(C)c(F)c4)c4ccc(C)c(F)c4)cc3)cc2)c2ccc(C)c(F)c2)cc1F [Compound C-1]	24.4
Cc1ccc([S+](c2ccc(Sc3ccc([S+](c4ccc(C)c([N+](=O)[O-])c4)c4ccc(C)c([N+](=O)[O-])c4)cc3)cc2)c2ccc(C)c([N+](=O)[O-])c2)cc1[N+](=O)[O-] [Compound C-3]	23.4
CCc1ccc([S+](c2ccc(Sc3ccc([S+](c4ccc(CC)c(C(F)(F)F)c4)c4ccc(CC)c(C(F)(F)F)c4)cc3)cc2)c2ccc(CC)c(C(F)(F)F)c2)cc1C(F)(F)F [Compound C-6]	25.3
Cc1ccc([S+](c2ccc(Sc3ccc([S+](c4ccc(C)c(C(F)(F)F)c4)c4ccc(C)c(C(F)(F)F)c4)cc3)cc2)c2ccc(C)c(C(F)(F)F)c2)cc1C(F)(F)F [Compound C-2]	24.3
Cc1ccc([S+](c2ccccc2)c2ccc(Sc3ccc([S+](c4ccccc4)c4ccc(C)cc4)cc3)cc2)cc1 [Compound D-2, reference compound]	19.3
CC(C)c1ccc([S+](c2ccc(-c3ccc([S+](c4ccc(C(C)C)c(F)c4)c4ccc(C(C)C)c(F)c4)cc3)cc2)c2ccc(C(C)C)c(F)c2)cc1F [Compound C-19]	24.8
Cc1ccc([S+](c2ccc(-c3ccc([S+](c4ccc(C)c(F)c4)c4ccc(C)c(F)c4)cc3)cc2)c2ccc(C)c(F)c2)cc1F [Compound C-10]	21.4
Cc1ccc([S+](c2ccc(-c3ccc([S+](c4ccc(C)c(C#N)c4)c4ccc(C)c(C#N)c4)cc3)cc2)c2ccc(C)c(C#N)c2)cc1C#N [Compound C-11]	21.0
Cc1ccc([S+](c2ccc(Sc3ccc([S+](c4ccc(C)c(C#N)c4)c4ccc(C)c(C#N)c4)cc3C)c(C)c2)c2ccc(C)c(C#N)c2)cc1C#N [Compound C-13]	24.9
Cc1ccc([S+](c2ccc(Sc3ccc([S+](c4ccc(C)c(C#N)c4)c4ccc(C)c(C#N)c4)cc3)cc2)c2ccc(C)c(C#N)c2)cc1C#N [Compound C-4]	23.1
Cc1ccc([S+](c2ccc(Sc3ccc([S+](c4ccc(C)c(F)c4)c4ccc(C)c(F)c4)cc3C)c(C)c2)c2ccc(C)c(F)c2)cc1F [Compound C-12]	25.3
Cc1ccc([S+](c2ccc(C)c(F)c2)c2ccc3c(c2)sc2cc([S+](c4ccc(C)c(F)c4)c4ccc(C)c(F)c4)ccc23)cc1F [Compound C-24]	23.5
